According to patent US11434242B2, “Dopamine-b-hydroxylase inhibitors” (BIAL-PORTELA & Cª, S.A., priority 2017, dated 2022):
Marks after values point to notes of the source that are not given here.

Target: T1, Dopamine beta hydroxylase (Homo sapiens, UniProt P09172)
T1 construct: 125 μl of plasma; tissue Instituto Português do Sangue Transplantação; host or cells: human plasma from healthy donors
T1 sequence (P09172 40-617 limits assumed): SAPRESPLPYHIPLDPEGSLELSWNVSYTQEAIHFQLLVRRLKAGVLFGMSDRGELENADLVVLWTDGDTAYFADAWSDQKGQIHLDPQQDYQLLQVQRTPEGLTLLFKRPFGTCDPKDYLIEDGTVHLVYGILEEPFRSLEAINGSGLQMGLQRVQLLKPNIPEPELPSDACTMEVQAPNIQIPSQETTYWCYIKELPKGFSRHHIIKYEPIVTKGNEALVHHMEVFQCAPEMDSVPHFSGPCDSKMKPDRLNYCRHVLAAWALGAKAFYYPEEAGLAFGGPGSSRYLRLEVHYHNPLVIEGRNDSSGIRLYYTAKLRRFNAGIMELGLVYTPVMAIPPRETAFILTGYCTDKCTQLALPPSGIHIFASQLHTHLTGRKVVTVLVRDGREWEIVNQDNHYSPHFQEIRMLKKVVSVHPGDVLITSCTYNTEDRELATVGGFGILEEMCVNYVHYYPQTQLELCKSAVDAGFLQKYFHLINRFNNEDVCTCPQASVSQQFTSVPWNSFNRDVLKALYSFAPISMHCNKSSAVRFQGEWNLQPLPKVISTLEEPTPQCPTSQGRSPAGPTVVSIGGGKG
Assay: Dopamine beta hydroxylase activity in human plasma
Assay type: biochemical
Settings: for Plasma (1 μM), activity in % of control: inhibitor 1 μM
Method in brief: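 Octopamine production from tyramine over 45 min at 37° C, measured photometrically at 330 nm after SCX extraction and periodate oxidation against an octopamine standard curve, indicates plasma DβH activity. Compounds tested at final 10, 100 and 1000 nM in human plasma, pH 5.0 cofactor buffer, 10 min preincubation; results as % of control.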

Row | Structure (SMILES) | Plasma (0.01 μM), activity in % of control (inhibitor 0.01 μM) | Plasma (0.1 μM), activity in % of control (inhibitor 0.1 μM) | Plasma (1 μM), activity in % of control | Plasma (0.01 μM), activity in % of control, re-test (asterisked) (inhibitor 0.01 μM, re-tested under the same experimental conditions, asterisked data believed to be correct) | Plasma (0.1 μM), activity in % of control, re-test (asterisked) (inhibitor 0.1 μM, re-tested under the same experimental conditions, asterisked data believed to be correct)
1 | O=C(CCc1[nH]c(=S)n2c1C[C@H](c1c(F)c(F)cc(F)c1F)C2)N1CCCCC1 [Example 207, (R)-1-(piperidin-1-yl)-3-(6-(2,3,5,6-tetrafluorophenyl)-3-thioxo-2,5,6,7-tetrahydro-3H-pyrrolo[1,2-c]imidazol-1-yl)propan-1-one] | 76.6 % of control | 30.2 % of control |  |  | 
2 | O=C(Cc1[nH]c(=S)n2c1C[C@H](c1c(F)c(F)cc(F)c1F)C2)NC1COC1 [Example 393, (R)—N-(oxetan-3-yl)-2-(6-(2,3,5,6-tetrafluorophenyl)-3-thioxo-2,5,6,7-tetrahydro-3H-pyrrolo[1,2-c]imidazol-1-yl)acetamide] | 90.6 % of control | 65.7 % of control |  |  | 
3 | O=C(Cc1[nH]c(=S)n2c1C[C@H](c1c(F)ccc(Br)c1F)C2)NCCO [Example 119, (R)-2-(6-(3-bromo-2,6-difluorophenyl)-3-thioxo-2,5,6,7-tetrahydro-3H-pyrrolo[1,2-c]imidazol-1-yl)-N-(2-hydroxyethyl)acetamide] | 118.2 % of control | 87.7 % of control |  |  | 
4 | CS(=O)(=O)NC(=O)Cc1[nH]c(=S)n2c1C[C@@H](c1cc(Br)ccc1F)C2 [Example 21, (S)-2-(6-(5-bromo-2-fluorophenyl)-3-thioxo-2,5,6,7-tetrahydro-3H-pyrrolo[1,2-c]imidazol-1-yl)-N-(methylsulfonyl)acetamide] |  | 69.2 % of control | 16.7 % of control |  | 
5 | C[C@H](NC(=O)Cc1[nH]c(=S)n2c1C[C@H](c1c(F)c(F)cc(F)c1F)C2)C(N)=O [Example 26, (S)-2-(2-((R)-6-(2,3,5,6-tetrafluorophenyl)-3-thioxo-2,5,6,7-tetrahydro-3H-pyrrolo[1,2-c]imidazol-1-yl)acetamido)propanamide] |  | 64.0 % of control | 18.2 % of control |  | 
6 | O=C(Cc1[nH]c(=S)n2c1[C@@H]1C[C@]1(c1cc(Br)ccc1F)C2)NC1CCOC1 (stereo partly drawn) [Example 148, 2-((5aS,6aR)-5a-(5-bromo-2-fluorophenyl)-3-thioxo-2,3,5,5a,6,6a-hexahydrocyclopropa[3,4]pyrrolo[1,2-c]imidazol-1-yl)-N-(tetrahydrofuran-3-yl)acetamide] |  | 17.1 % of control | 0.9 % of control |  | 
7 | O=C(Cc1[nH]c(=S)n2c1C[C@H](c1c(F)c(F)cc(F)c1F)C2)NC1CCC1 [Example 80, (R)—N-cyclobutyl-2-(6-(2,3,5,6-tetrafluorophenyl)-3-thioxo-2,5,6,7-tetrahydro-3H-pyrrolo[1,2-c]imidazol-1-yl)acetamide] |  | 60.7 % of control | 9.8 % of control |  | 
8 | Cn1c(CC(=O)NCC2CCOCC2)c2n(c1=S)C[C@H](c1c(F)ccc(F)c1F)C2 [Example 427, (S)-2-(2-methyl-3-thioxo-6-(2,3,6-trifluorophenyl)-2,5,6,7-tetrahydro-3H-pyrrolo[1,2-c]imidazol-1-yl)-N-((tetrahydro-2H-pyran-4-yl)methyl)acetamide] | 78.1 % of control | 34.2 % of control |  |  | 
9 | O=C(O)Cc1[nH]c(=S)n2c1C[C@@H](c1c(F)ccc(Br)c1F)C2 [Example 12, (S)-2-(6-(3-bromo-2,6-difluorophenyl)-3-thioxo-2,5,6,7-tetrahydro-3H-pyrrolo[1,2-c]imidazol-1-yl)acetic Acid] |  | 30.8 % of control | 3.3 % of control |  | 
10 | Cn1c(CC(=O)N2CCOCC2)c2n(c1=S)C[C@H](c1c(F)ccc(Br)c1F)C2 [Example 233, (S)-2-(6-(3-bromo-2,6-difluorophenyl)-2-methyl-3-thioxo-2,5,6,7-tetrahydro-3H-pyrrolo[1,2-c]imidazol-1-yl)-1-morpholinoethan-1-one] | 83.8 % of control | 66.8 % of control |  | 59.3* % of control | 9.7* % of control
11 | Cn1c(CC(=O)N[C@H]2CCOC2)c2n(c1=S)C[C@@H](c1c(F)c(F)cc(F)c1F)C2 [Example 295, 2-((R)-2-methyl-3-thioxo-6-(2,3,5,6-tetrafluorophenyl)-2,5,6,7-tetrahydro-3H-pyrrolo[1,2-c]imidazol-1-yl)-N—((S)-tetrahydrofuran-3-yl)acetamide] | 95.6 % of control | 71.5 % of control |  |  | 
12 | O=C(Cc1[nH]c(=S)n2c1C[C@H](c1c(F)ccc(F)c1F)C2)N1CCOCC1 [Example 366, (R)-2-(6-(2,3,6-trifluorophenyl)-3-thioxo-2,5,6,7-tetrahydro-3H-pyrrolo[1,2-c]imidazol-1-yl)-1-morpholinoethan-1-one] | 124.8 % of control | 81.4 % of control |  |  | 
13 | O=C(Cc1[nH]c(=S)n2c1C[C@H](c1c(F)c(F)cc(F)c1F)C2)N1CCCC1 [Example 104, (R)-1-(pyrrolidin-1-yl)-2-(6-(2,3,5,6-tetrafluorophenyl)-3-thioxo-2,5,6,7-tetrahydro-3H-pyrrolo[1,2-c]imidazol-1-yl)ethan-1-one] |  | 67.9 % of control | 19.5 % of control |  | 
14 | CN(C(=O)Cc1c2n(c(=S)n1C)C[C@@H](c1c(F)c(F)cc(F)c1F)C2)C1CCOC1 (stereo partly drawn) [Example 375, N-methyl-2-((R)-2-methyl-6-(2,3,5,6-tetrafluorophenyl)-3-thioxo-2,5,6,7-tetrahydro-3H-pyrrolo[1,2-c]imidazol-1-yl)-N-(tetrahydrofuran-3-yl)acetamide] | 90.0 % of control | 40.7 % of control |  |  | 
15 | C[C@@H](NC(=O)Cc1[nH]c(=S)n2c1C[C@H](c1c(F)ccc(Br)c1F)C2)C1CCCCC1 [Example 127, 2-((R)-6-(3-bromo-2,6-difluorophenyl)-3-thioxo-2,5,6,7-tetrahydro-3H-pyrrolo[1,2-c]imidazol-1-yl)-N—((R)-1-cyclohexylethyl)acetamide] | 81.3 % of control | 83.8 % of control |  |  | 
16 | Cn1c(CC(=O)O)c2n(c1=S)C[C@H](c1c(F)ccc(Cl)c1F)C2 [Example 424, (S)-2-(6-(3-chloro-2,6-difluorophenyl)-2-methyl-3-thioxo-2,5,6,7-tetrahydro-3H-pyrrolo[1,2-c]imidazol-1-yl)acetic acid] | 59.5 % of control | 20.6 % of control |  |  | 
17 | CCOC(=O)Cc1[nH]c(=S)n2c1C[C@H](c1c(F)c(F)cc(F)c1F)C2 [Example 63, Ethyl (R)-2-(6-(2,3,5,6-tetrafluorophenyl)-3-thioxo-2,5,6,7-tetrahydro-3H-pyrrolo[1,2-c]imidazol-1-yl)acetate] |  | 58.3 % of control | 11.9 % of control |  | 
18 | Cn1c(CC(=O)N[C@@H]2CCOC2)c2n(c1=S)C[C@@H](c1c(F)ccc(F)c1F)C2 [Example 244, 2-((R)-2-methyl-3-thioxo-6-(2,3,6-trifluorophenyl)-2,5,6,7-tetrahydro-3H-pyrrolo[1,2-c]imidazol-1-yl)-N—((R)-tetrahydrofuran-3-yl)acetamide] | 83.6 % of control | 32.9 % of control |  |  | 
19 | Fc1cc(F)c(F)c([C@H]2Cc3c(CCc4cccnc4)[nH]c(=S)n3C2)c1F [Example 212, (R)-1-(2-(pyridin-3-yl)ethyl)-6-(2,3,5,6-tetrafluorophenyl)-6,7-dihydro-2H-pyrrolo[1,2-c]imidazole-3(5H)-thione] | 86.5 % of control | 46 % of control |  |  | 
20 | CC(C)NCCc1[nH]c(=S)n2c1[C@@H]1C[C@]1(c1cc(Cl)ccc1F)C2.Cl [Example 175, (5aS,6aR)-5a-(5-chloro-2-fluorophenyl)-1-(2-(isopropylamino)ethyl)-5,5a,6,6a-tetrahydrocyclopropa[3,4]pyrrolo[1,2-c]imidazole-3(2H)-thione hydrochloride] |  | 61.7 % of control | 13.8 % of control |  | 
